{"source": "patent US20210353621A1", "about": "(priority 2020, published 2021)", "key": {"in vivo": {"experiment": "in vivo", "conditions": "dog, po"}, "[1]": {"experiment": "28-day GLP toxicology study in rats"}, "OATP1B3": {"target": "OATP1B3 (Homo sapiens, UniProt Q9NPD5)", "sequence (Q9NPD5 whole entry)": "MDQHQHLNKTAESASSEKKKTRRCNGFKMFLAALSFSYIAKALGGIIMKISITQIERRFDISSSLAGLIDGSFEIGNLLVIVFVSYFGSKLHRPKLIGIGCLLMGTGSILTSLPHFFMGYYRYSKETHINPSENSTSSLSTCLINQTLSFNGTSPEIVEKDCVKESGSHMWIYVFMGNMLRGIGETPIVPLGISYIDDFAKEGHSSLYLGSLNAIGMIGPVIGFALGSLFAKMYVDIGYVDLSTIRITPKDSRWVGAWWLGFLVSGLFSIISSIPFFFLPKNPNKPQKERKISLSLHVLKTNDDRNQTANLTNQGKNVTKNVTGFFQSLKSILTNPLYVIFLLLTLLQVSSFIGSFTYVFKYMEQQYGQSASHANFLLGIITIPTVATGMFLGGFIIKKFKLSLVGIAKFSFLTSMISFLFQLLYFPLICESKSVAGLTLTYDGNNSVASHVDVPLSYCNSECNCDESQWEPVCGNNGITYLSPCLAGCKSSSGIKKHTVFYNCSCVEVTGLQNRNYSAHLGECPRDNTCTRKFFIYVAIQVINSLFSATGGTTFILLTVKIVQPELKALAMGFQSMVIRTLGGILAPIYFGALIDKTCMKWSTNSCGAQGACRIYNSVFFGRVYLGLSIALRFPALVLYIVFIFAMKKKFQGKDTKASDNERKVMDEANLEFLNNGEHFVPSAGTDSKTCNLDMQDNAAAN", "experiment": "In vitro transporter inhibition, OATP1B3"}, "[2]": {"experiment": "Phase I dose escalation safety in mCRPC patients", "from_the_text": "(§1) A traditional 3+3 dose escalation design was implemented. […] Dose increases were dependent upon toxicities."}, "[3]": {"experiment": "Phase I clinical trial pharmacokinetics", "conditions": "male, human, in vivo, po, once daily", "from_the_text": "as §1"}, "[4]": {"experiment": "Preclinical pharmacokinetics, oral once daily (Table 1)", "conditions": "total drug concentrations"}, "[5]": {"test_system": "enzalutamide resistant VCaP xenograft", "experiment": "Enzalutamide-resistant VCaP xenograft model", "type": "in vivo"}, "OATP1B1": {"target": "OATP1B1 (Homo sapiens, UniProt Q9Y6L6)", "sequence (Q9Y6L6 whole entry)": "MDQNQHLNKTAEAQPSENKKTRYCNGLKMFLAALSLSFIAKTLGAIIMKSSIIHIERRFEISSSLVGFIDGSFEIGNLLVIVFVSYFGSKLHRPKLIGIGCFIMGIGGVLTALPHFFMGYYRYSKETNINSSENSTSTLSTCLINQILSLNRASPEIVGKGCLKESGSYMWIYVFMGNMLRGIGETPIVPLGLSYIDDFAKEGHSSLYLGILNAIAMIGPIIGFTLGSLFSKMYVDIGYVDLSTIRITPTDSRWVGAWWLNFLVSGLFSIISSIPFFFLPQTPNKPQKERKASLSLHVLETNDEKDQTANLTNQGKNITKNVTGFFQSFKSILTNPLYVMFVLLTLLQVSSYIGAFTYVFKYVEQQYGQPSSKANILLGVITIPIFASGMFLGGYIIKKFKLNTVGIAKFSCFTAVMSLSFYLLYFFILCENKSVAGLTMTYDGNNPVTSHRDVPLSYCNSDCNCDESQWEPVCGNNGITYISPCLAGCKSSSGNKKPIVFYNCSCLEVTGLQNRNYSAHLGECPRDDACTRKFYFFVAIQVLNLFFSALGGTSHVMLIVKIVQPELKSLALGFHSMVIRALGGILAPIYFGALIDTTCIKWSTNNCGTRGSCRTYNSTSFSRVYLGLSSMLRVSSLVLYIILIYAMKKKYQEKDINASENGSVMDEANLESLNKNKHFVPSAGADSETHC", "experiment": "In vitro transporter inhibition, OATP1B1"}, "BCRP": {"target": "T1, BCRP (Homo sapiens, UniProt Q9UNQ0)", "T1 sequence (Q9UNQ0 1-655)": "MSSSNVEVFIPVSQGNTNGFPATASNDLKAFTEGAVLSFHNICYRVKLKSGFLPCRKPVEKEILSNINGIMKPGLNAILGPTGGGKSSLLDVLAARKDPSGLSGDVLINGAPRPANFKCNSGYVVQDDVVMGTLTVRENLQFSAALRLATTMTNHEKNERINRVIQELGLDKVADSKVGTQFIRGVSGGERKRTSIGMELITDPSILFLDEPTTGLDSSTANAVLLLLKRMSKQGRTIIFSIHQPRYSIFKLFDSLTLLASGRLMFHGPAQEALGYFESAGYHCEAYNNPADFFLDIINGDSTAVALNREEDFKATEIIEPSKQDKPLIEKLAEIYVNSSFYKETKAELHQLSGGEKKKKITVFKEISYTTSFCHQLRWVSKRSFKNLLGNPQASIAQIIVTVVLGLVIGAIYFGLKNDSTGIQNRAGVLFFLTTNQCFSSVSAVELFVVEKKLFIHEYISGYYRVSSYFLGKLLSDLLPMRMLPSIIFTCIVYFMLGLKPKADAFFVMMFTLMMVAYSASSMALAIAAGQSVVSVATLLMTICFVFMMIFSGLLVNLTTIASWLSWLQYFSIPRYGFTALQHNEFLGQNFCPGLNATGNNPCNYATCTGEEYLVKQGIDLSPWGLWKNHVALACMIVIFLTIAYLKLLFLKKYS", "experiment": "In vitro transporter inhibition, BCRP"}, "[6]": {"experiment": "Exploratory non-GLP assay of rosuvastatin in retained patient plasma samples", "type": "in vivo, human", "conditions": "2 patients taking rosuvastatin concurrently with Compound (I-g)", "from_the_text": "An exploratory, non-GLP method was developed to analyze for rosuvastatin and its major metabolite N-desmethyl rosuvastatin in retained pharmacokinetic plasma samples from the 2 patients."}, "[7]": {"conditions": "3 and 10 μM, preliminary study, solubility limitation"}, "[8]": {"conditions": "280 mg QD patient with rosuvastatin 20 mg QD, level before decrease"}, "[9]": {"conditions": "same patient, within 14 days after Compound (I-g) and rosuvastatin were discontinued"}}, "note": "Where two headings read alike, the source gives them in different places."}
{"compound": "N#Cc1ccc(O[C@H]2CC[C@H](NC(=O)c3ccc(N4CCC(CN5CCN(c6cc7c(cc6F)C(=O)N(C6CCC(=O)NC6=O)C7=O)CC5)CC4)nn3)CC2)cc1Cl", "note": "(stereo partly shown) [Compound (I-g)]", "values": [{"measurement": "MTD at 28 days", "setting": "in vivo", "result": "< 30", "unit": "mg/kg"}, {"measurement": "body weight and food consumption", "setting": "[1]; 80 mg/kg female rat cohort", "result": "lost body weight and consumed less food"}, {"measurement": "reversibility of findings in male high-dose rats", "setting": "[1]; male high-dose rats, 14-day recovery", "result": "fully reversible (liver hypertrophy, femur physis thickening)"}, {"measurement": "prostate weights", "setting": "[1]; male rats", "result": "decreased prostate weights"}, {"measurement": "renal impairment", "setting": "[1]; rats, 28-day GLP study", "result": "No evidence of renal impairment was observed"}, {"measurement": "tolerability", "setting": "[1]; rats, oral once daily, 28 days, males 20, 60, 120 mg/kg, females 20, 40, 120 mg/kg", "result": "well tolerated at all doses, with the exception of the 80 mg/kg female cohort"}, {"measurement": "IC50", "setting": "OATP1B3", "result": "> 10", "unit": "µM"}, {"measurement": "inhibition of OATP1B3", "setting": "OATP1B3; [7]", "result": "no inhibition"}, {"measurement": "adverse events", "setting": "[2]; 35 mg/day cohort", "result": "no adverse events at grades 2, 3 or 4 were observed"}, {"measurement": "dose limiting toxicity", "setting": "[2]; 35 mg/day cohort", "result": "no dose limiting toxicity was observed"}, {"measurement": "AST/ALT elevation on second re-challenge", "setting": "[2]; 70 mg QD following discontinuation of rosuvastatin", "result": "no other AST/ALT elevation has been observed for 90 days"}, {"measurement": "AST/ALT elevation on re-challenge", "setting": "[2]; 70 mg QD while continuing rosuvastatin", "result": "second instance of Grade 3 AST/ALT elevation"}, {"measurement": "adverse events", "setting": "[2]; 70 mg/day cohort", "result": "no adverse events at grades 2, 3 or 4 have been observed, with the exception of grade 3 anemia that was unrelated to the administration of compound (I-g)"}, {"measurement": "dose limiting toxicity", "setting": "[2]; 70 mg/day cohort", "result": "no dose limiting toxicity has been observed"}, {"measurement": "adverse events", "setting": "[2]; 140 mg/day cohort", "result": "no adverse events at grades 2, 3 or 4 have been observed"}, {"measurement": "dose limiting toxicity", "setting": "[2]; 140 mg/day cohort", "result": "no dose limiting toxicity has been observed"}, {"measurement": "dose limiting toxicity", "setting": "[2]; 280 mg QD cohort (3 patients), patient taking rosuvastatin 20 mg QD", "result": "one patient experienced dose limiting toxicity (DLT) of Grade 4 AST/ALT elevation followed by Grade 4 acute renal failure"}, {"measurement": "ALT level", "setting": "[2]; [8]", "result": 4116, "unit": "U/L"}, {"measurement": "AST level", "setting": "[2]; [8]", "result": 4901, "unit": "U/L"}, {"measurement": "overall tolerability", "setting": "[2]; 18 patients, 35 mg to 280 mg QD", "result": "well tolerated"}, {"measurement": "time to resolution of Grade 3 AST/ALT elevation to Grade 1", "setting": "[2]; after dose interruption, 140 mg QD patient with rosuvastatin 40 mg QD", "result": "≤ 5", "unit": "days"}, {"measurement": "ALT level", "setting": "[2]; [9]", "result": 83, "unit": "U/L"}, {"measurement": "AST level", "setting": "[2]; [9]", "result": 280, "unit": "U/L"}, {"measurement": "AUC(0-t)", "setting": "[3]; 35 mg, Mean Day 1 AUC0-24, 35 mg oral", "result": 160, "unit": "ng·h/mL"}, {"measurement": "Cmax", "setting": "[3]; 35 mg, Mean Day 1 Cmax, 35 mg oral", "result": 11.1, "unit": "ng/mL"}, {"measurement": "AUC(0-t)", "setting": "[3]; 35 mg, Mean Day 15 AUC0-24, 35 mg oral, imputed 24 hours values", "result": 1700, "unit": "ng·h/mL"}, {"measurement": "Cmax", "setting": "[3]; 35 mg, Mean Day 15 Cmax, 35 mg oral", "result": 83, "unit": "ng/mL"}, {"measurement": "AUC(0-t)", "setting": "[3]; 70 mg, Mean Day 1 AUC0-24, 70 mg oral", "result": 300, "unit": "ng·h/mL"}, {"measurement": "Cmax", "setting": "[3]; 70 mg, Mean Day 1 Cmax, 70 mg oral", "result": 19.6, "unit": "ng/mL"}, {"measurement": "AUC(0-t)", "setting": "[3]; 70 mg, Mean Day 15 AUC0-24, 70 mg oral, imputed 24 hours values", "result": 2540, "unit": "ng·h/mL"}, {"measurement": "Cmax", "setting": "[3]; 70 mg, Mean Day 15 Cmax, 70 mg oral", "result": 141, "unit": "ng/mL"}, {"measurement": "AUC(0-t)", "setting": "[3]; 140 mg, Mean Day 1 AUC0-24, 140 mg oral", "result": 865, "unit": "ng·h/mL"}, {"measurement": "Cmax", "setting": "[3]; 140 mg, Mean Day 1 Cmax, 140 mg oral", "result": 54, "unit": "ng/mL"}, {"measurement": "AUC(0-t)", "setting": "[3]; 140 mg, Mean Day 15 AUC0-24, 140 mg oral, imputed 24 hours values", "result": 5020, "unit": "ng·h/mL"}, {"measurement": "Cmax", "setting": "[3]; 140 mg, Mean Day 15 Cmax, 140 mg oral", "result": 353, "unit": "ng/mL"}, {"measurement": "Mean AUC0-24", "setting": "[4]; 1 mg/kg oral", "result": 3628, "unit": "ng·h/mL"}, {"measurement": "Mean Cmax", "setting": "[4]; 1 mg/kg oral", "result": 224, "unit": "ng/mL"}, {"measurement": "Mean AUC0-24", "setting": "[4]; 3 mg/kg oral", "result": 8106, "unit": "ng·h/mL"}, {"measurement": "Mean Cmax", "setting": "[4]; 3 mg/kg oral", "result": 507, "unit": "ng/mL"}, {"measurement": "tumor growth inhibition", "setting": "[5]; 3 mg/kg oral once daily, compared to a control group", "result": 70, "unit": "%"}, {"measurement": "AR in enzalutamide-resistant VCaP tumors (Western blot)", "setting": "[5]; 10 mg/kg and 3 mg/kg oral, once daily, FIG. 6", "result": "reduction of AR"}, {"measurement": "lowest efficacious dose", "setting": "[5]; oral, once daily, enzalutamide-resistant VCaP model", "result": 3, "unit": "mg/kg"}, {"measurement": "IC50", "setting": "OATP1B1", "result": "> 10", "unit": "µM"}, {"measurement": "inhibition of OATP1B1", "setting": "OATP1B1; [7]", "result": "no inhibition"}, {"measurement": "histopathology correlated with AST/ALT elevations", "setting": "dogs", "result": "No correlated histopathology changes were observed"}, {"measurement": "gastrointestinal alterations", "setting": "dogs, 3, 10 or 30 mg/kg oral once daily", "result": "observed at all dose levels (including vehicle alone)"}, {"measurement": "AST and ALT", "setting": "dogs, 10 or 30 mg/kg/day, study days 14 and 29", "result": "reversible elevations of AST and ALT"}, {"measurement": "renal impairment", "setting": "dogs, 28-day GLP study", "result": "No evidence of renal impairment was observed"}, {"measurement": "prostate weights", "setting": "male dogs", "result": "decreased prostate weights"}, {"measurement": "IC50", "setting": "BCRP", "result": "> 10", "unit": "µM"}, {"measurement": "inhibition of BCRP", "setting": "BCRP; [7]", "result": "no inhibition"}]}
{"compound": "CC(C)c1nc(N(C)S(C)(=O)=O)nc(-c2ccc(F)cc2)c1/C=C/[C@@H](O)C[C@@H](O)CC(=O)O", "note": "[Rosuvastatin, rosuvastatin]", "values": [{"measurement": "rosuvastatin plasma concentrations", "setting": "[6]", "result": "increased concurrently with the increase in AST/ALT levels in both patients"}]}
